Reference: patent US12310955B2 (priority 2020, dated 2025)
Like-named read-outs stand apart in the source and are kept apart here.

Tested on: recombinant rabies virus 1088 strain expressing Gaussia Luciferase (1088/GLuc)
Assay: microbe, parasite or virus in culture
Assay type: cell-based

Row | SMILES | IC50 (read-out: Anti-rabies activity) [µM] | other results
1 | CC(C)CN1C(=O)[C@@H]2C[C@H]3CN[C@@H]([C@@H]2Cc2c[nH]c4cc(F)ccc24)[C@]31C(=O)NCC1CCCCCC1 [IB-817] | 10 to 30 | –
2 | Cc1ccc2c(C[C@@H]3[C@H]4C[C@H]5CN[C@@H]3[C@@]5(C(=O)NCC3CCCCCC3)N(CC(C)C)C4=O)cn(C(=O)OC(C)(C)C)c2c1 [IB-814] | 10 to 30 | –
3 | COc1ccc(CN2C[C@H]3C[C@]4(C(=O)NCc5ccccc5)NC(=O)[C@H]3[C@H]2[C@H]4CC(C)C)cc1 (relative stereo) [Compound I-5, (3S*,3aR*,6S*,7R*,7aR*)-N-benzyl-7-isobutyl-1-(4-methoxybenzyl)-4-oxooctahydro-6H-3,6-methanopyrrolo[3,2-c]pyridine-6-carboxamide] | – | IC50 (Lyssavirus rabies, N2a, 72 h, read-out: Anti-rabies activity): < 5 µM
4 | Cc1ccc2c(CN3CC4CC5(C(=O)NCC6CCCCCC6)NC(=O)C4C3C5CC(C)C)cn(C(=O)OC(C)(C)C)c2c1 (racemic) [IF-782] | 10 to 30 | –
5 | NC(=O)c1nc(F)c[nH]c1=O [Compound T-705, reference compound] | – | IC50 (Lyssavirus rabies, N2a, 72 h, read-out: anti-rabies virus activity IC50): 30 µM
